Source: ChEMBL document CHEMBL1150501 (Bioorg Med Chem Lett, 1995)

Target: Glucagon receptor (Rattus norvegicus, UniProt P30082)
Test: pA2 value towards glucagon receptor relative to glucagon was calculated

Sequence of Glucagon receptor (P30082 whole entry): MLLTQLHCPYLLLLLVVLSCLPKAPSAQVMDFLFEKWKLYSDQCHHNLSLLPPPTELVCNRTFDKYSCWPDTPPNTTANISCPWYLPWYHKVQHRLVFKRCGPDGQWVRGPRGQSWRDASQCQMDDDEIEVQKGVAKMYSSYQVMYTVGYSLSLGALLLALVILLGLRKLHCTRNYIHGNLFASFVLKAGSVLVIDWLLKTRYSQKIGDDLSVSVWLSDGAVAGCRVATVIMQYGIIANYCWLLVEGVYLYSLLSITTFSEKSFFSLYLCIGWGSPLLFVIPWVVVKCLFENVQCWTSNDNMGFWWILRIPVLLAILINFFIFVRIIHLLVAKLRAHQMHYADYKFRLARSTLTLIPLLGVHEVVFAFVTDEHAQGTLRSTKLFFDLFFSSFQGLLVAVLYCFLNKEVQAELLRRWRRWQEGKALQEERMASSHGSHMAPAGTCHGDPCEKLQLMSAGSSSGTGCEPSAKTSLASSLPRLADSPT

Substance H-SQGTTSEYSKYLDSRRAQDFVQWLMNT-NH2 has a Kb of 6.31 nM.
